Assay results reported in patent US8680012B2, “4-phenyl-pyrane-3,5-diones,4-phenyl-thiopyrane-3,6-diones and cyclohexanetriones as novel herbicides” (Syngenta Crop Protection LLC, priority 2006, dated 2014).

How the values were obtained:
Format in all cases: in vivo
[1] = test system: Alopecurus myosuroides (ALOMY); experiment: Example B pre-emergence herbicidal activity, glasshouse pot test; conditions: 312 h, evaluated after 13 days, read-out: Pre-emergence activity ALOMY (100=total damage to plant; 0=no damage to plant); for pest or weed control at 1000 g/ha: rate 1000 g/ha; for pest or weed control at 250 g/ha: rate 250 g/ha
Procedure, shortened: (§1)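 Compound sprayed in acetone/water (50:50) plus 0.5% Tween 20 onto potted soil one day post-sowing, or onto seedlings after 8 days. Scored 0–100 for damage after 13 days.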

[2] = test system: Amaranthus retroflexus (AMARE); experiment: as above; conditions: 312 h, evaluated after 13 days, read-out: Pre-emergence activity AMARE (100=total damage to plant; 0=no damage to plant); for pest or weed control at 1000 g/ha: rate 1000 g/ha; for pest or weed control at 250 g/ha: rate 250 g/ha
Procedure, shortened: as §1

Avena fatua (AVEFA) [3] = experiment: as above; conditions: 312 h, evaluated after 13 days, read-out: Pre-emergence activity AVEFA (100=total damage to plant; 0=no damage to plant); for pest or weed control at 1000 g/ha: rate 1000 g/ha; for pest or weed control at 250 g/ha: rate 250 g/ha
Procedure, shortened: as §1

[4] = test system: Echinochloa crus-galli (ECHCG); experiment: as above; conditions: 312 h, evaluated after 13 days, read-out: Pre-emergence activity ECHCG (100=total damage to plant; 0=no damage to plant); for pest or weed control at 1000 g/ha: rate 1000 g/ha; for pest or weed control at 250 g/ha: rate 250 g/ha
Procedure, shortened: as §1

Setaria faberi (SETFA) [5] = experiment: as above; conditions: 312 h, evaluated after 13 days, read-out: Pre-emergence activity SETFA (100=total damage to plant; 0=no damage to plant); for pest or weed control at 1000 g/ha: rate 1000 g/ha; for pest or weed control at 250 g/ha: rate 250 g/ha
Procedure, shortened: as §1

Solanum nigrum (SOLNI) [6] = experiment: as above; conditions: 312 h, evaluated after 13 days, read-out: Pre-emergence activity SOLNI (100=total damage to plant; 0=no damage to plant); for pest or weed control at 1000 g/ha: rate 1000 g/ha; for pest or weed control at 250 g/ha: rate 250 g/ha
Procedure, shortened: as §1

[7] = test system: Alopecurus myosuroides (ALOMY); experiment: Example B post-emergence herbicidal activity, glasshouse pot test; conditions: 312 h, evaluated after 13 days, read-out: Post-emergence activity ALOMY (100=total damage to plant; 0=no damage to plant); for pest or weed control at 1000 g/ha: rate 1000 g/ha; for pest or weed control at 250 g/ha: rate 250 g/ha
Procedure, shortened: as §1

[8] = test system: Amaranthus retroflexus (AMARE); experiment: as above; conditions: 312 h, evaluated after 13 days, read-out: Post-emergence activity AMARE (100=total damage to plant; 0=no damage to plant); for pest or weed control at 1000 g/ha: rate 1000 g/ha; for pest or weed control at 250 g/ha: rate 250 g/ha
Procedure, shortened: as §1

Avena fatua (AVEFA) [9] = experiment: as above; conditions: 312 h, evaluated after 13 days, read-out: Post-emergence activity AVEFA (100=total damage to plant; 0=no damage to plant); for pest or weed control at 1000 g/ha: rate 1000 g/ha; for pest or weed control at 250 g/ha: rate 250 g/ha
Procedure, shortened: as §1

[10] = test system: Echinochloa crus-galli (ECHCG); experiment: as above; conditions: 312 h, evaluated after 13 days, read-out: Post-emergence activity ECHCG (100=total damage to plant; 0=no damage to plant); for pest or weed control at 1000 g/ha: rate 1000 g/ha; for pest or weed control at 250 g/ha: rate 250 g/ha
Procedure, shortened: as §1

Setaria faberi (SETFA) [11] = experiment: as above; conditions: 312 h, evaluated after 13 days, read-out: Post-emergence activity SETFA (100=total damage to plant; 0=no damage to plant); for pest or weed control at 1000 g/ha: rate 1000 g/ha; for pest or weed control at 250 g/ha: rate 250 g/ha
Procedure, shortened: as §1

Solanum nigrum (SOLNI) [12] = experiment: as above; conditions: 312 h, evaluated after 13 days, read-out: Post-emergence activity SOLNI (100=total damage to plant; 0=no damage to plant); for pest or weed control at 1000 g/ha: rate 1000 g/ha; for pest or weed control at 250 g/ha: rate 250 g/ha
Procedure, shortened: as §1

Row | SMILES | pest or weed control at 1000 g/ha [1] | pest or weed control at 1000 g/ha [2] | pest or weed control at 1000 g/ha (Avena fatua (AVEFA) [3]) | pest or weed control at 1000 g/ha [4] | pest or weed control at 1000 g/ha (Setaria faberi (SETFA) [5]) | pest or weed control at 1000 g/ha (Solanum nigrum (SOLNI) [6]) | pest or weed control at 1000 g/ha [7] | pest or weed control at 1000 g/ha [8] | pest or weed control at 1000 g/ha (Avena fatua (AVEFA) [9]) | pest or weed control at 1000 g/ha [10] | pest or weed control at 1000 g/ha (Setaria faberi (SETFA) [11]) | pest or weed control at 1000 g/ha (Solanum nigrum (SOLNI) [12]) | other results
1 | CCOC(=O)OC1=C(c2cc(-c3ccc(Cl)cc3)ccc2CC)C(=O)C(C)(C)OC1(C)C [Compound D-13] | 50% | 0% | 20% | 90% | 90% | 0% | 60% | 0% | 0% | 100% | 100% | 0% | 
2 | CCc1ccc(-c2ccc(Cl)cc2)cc1C1=C(OC(=O)C(C)C)C(C)(C)OC(C)(C)C1=O [Compound D-9] | 20% | 0% | 0% | 70% | 90% | 0% | 30% | 0% | 0% | 100% | 90% | 0% | 
3 | CCc1ccc(-c2ccc(Cl)cc2Cl)cc1C1=C(O)C(C)(C)C(=O)C(C)(C)C1=O [Compound B-13] |  |  |  |  |  |  |  |  |  |  |  |  | pest or weed control at 250 g/ha [1]: 0%; pest or weed control at 250 g/ha [2]: 0%; pest or weed control at 250 g/ha (Avena fatua (AVEFA) [3]): 20%; pest or weed control at 250 g/ha [4]: 30%; pest or weed control at 250 g/ha (Setaria faberi (SETFA) [5]): 20%; pest or weed control at 250 g/ha (Solanum nigrum (SOLNI) [6]): 0%; pest or weed control at 250 g/ha [7]: 0%; pest or weed control at 250 g/ha [8]: 20%; pest or weed control at 250 g/ha (Avena fatua (AVEFA) [9]): 30%; pest or weed control at 250 g/ha [10]: 80%; pest or weed control at 250 g/ha (Setaria faberi (SETFA) [11]): 90%; pest or weed control at 250 g/ha (Solanum nigrum (SOLNI) [12]): 0%
4 | CCc1ccc(-c2ccc(Cl)cc2)cc1C1=C(OC(=O)C(C)CC)C(C)(C)OC(C)(C)C1=O [Compound D-11] | 20% | 0% | 0% | 20% | 90% | 0% | 40% | 0% | 0% | 100% | 90% | 0% | 
5 | CCc1ccc(-c2ccc(Cl)cc2)cc1C1=C(OC(=O)CCOC)C(C)(C)OC(C)(C)C1=O [Compound D-21] | 90% | 0% | 50% | 100% | 100% | 0% | 100% | 10% | 90% | 100% | 100% | 30% | 
6 | CCc1ccc(-c2ccc(Cl)cc2)cc1C1=C(OC(=O)COC)C(C)(C)OC(C)(C)C1=O [Compound D-12] | 90% | 0% | 60% | 100% | 100% | 0% | 90% | 0% | 90% | 100% | 100% | 0% | 
7 | CCc1ccc(-c2ccc(Cl)nc2)cc1C1=C(O)C(C)(C)C(=O)C(C)(C)C1=O [Compound B-9] |  |  |  |  |  |  |  |  |  |  |  |  | pest or weed control at 250 g/ha [1]: 0%; pest or weed control at 250 g/ha [2]: 0%; pest or weed control at 250 g/ha (Avena fatua (AVEFA) [3]): 0%; pest or weed control at 250 g/ha [4]: 0%; pest or weed control at 250 g/ha (Setaria faberi (SETFA) [5]): 0%; pest or weed control at 250 g/ha (Solanum nigrum (SOLNI) [6]): 0%; pest or weed control at 250 g/ha [7]: 40%; pest or weed control at 250 g/ha [8]: 40%; pest or weed control at 250 g/ha (Avena fatua (AVEFA) [9]): 0%; pest or weed control at 250 g/ha [10]: 80%; pest or weed control at 250 g/ha (Setaria faberi (SETFA) [11]): 70%; pest or weed control at 250 g/ha (Solanum nigrum (SOLNI) [12]): 20%
8 | Cc1ccc(-c2ccc(Cl)nc2C)cc1C1=C(O)C(C)(C)OC(C)(C)C1=O [Compound A-56] | 10% | 0% | 40% | 30% | 0% | 20% | 80% | 20% | 50% | 80% | 80% | 20% | 
9 | CCc1ccc(-c2ccc(Cl)cc2)cc1C1=C(O)[C@@]2(C)CC[C@H](O2)C1=O (single isomer, unassigned) [Compound A-29] | 90% | 0% | 80% | 100% | 100% | 0% | 100% | 40% | 100% | 100% | 100% | 60% | 
10 | Cc1ccc(-c2ccc(Cl)nc2Cl)cc1C1=C(O)C(C)(C)OC(C)(C)C1=O [Compound A-58] | 80% | 20% | 60% | 100% | 100% | 20% | 90% | 70% | 90% | 100% | 90% | 30% | 
11 | Cc1ccc(-c2ccc(Cl)nc2)cc1C1=C(O)C(C)(C)OC(C)(C)C1=O [Compound A-54] | 70% | 20% | 80% | 100% | 90% | 0% | 80% | 0% | 50% | 90% | 80% | 0% | 
12 | Cc1ccc(-c2ccc(Cl)cc2F)cc1C1=C(O)C(C)(C)C(=O)C(C)(C)C1=O [Compound B-18] |  |  |  |  |  |  |  |  |  |  |  |  | pest or weed control at 250 g/ha [1]: 40%; pest or weed control at 250 g/ha [2]: 0%; pest or weed control at 250 g/ha (Avena fatua (AVEFA) [3]): 0%; pest or weed control at 250 g/ha [4]: 0%; pest or weed control at 250 g/ha (Setaria faberi (SETFA) [5]): 20%; pest or weed control at 250 g/ha (Solanum nigrum (SOLNI) [6]): 0%; pest or weed control at 250 g/ha [7]: 10%; pest or weed control at 250 g/ha [8]: 0%; pest or weed control at 250 g/ha (Avena fatua (AVEFA) [9]): 0%; pest or weed control at 250 g/ha [10]: 60%; pest or weed control at 250 g/ha (Setaria faberi (SETFA) [11]): 70%; pest or weed control at 250 g/ha (Solanum nigrum (SOLNI) [12]): 0%
